Data taken from PubChem BioAssay (NCI).
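How tested: cells in 96-well plates exposed to compound for 48 hours at five concentrations. GI50 is the concentration that inhibits growth by half. TGI: concentration producing complete growth inhibition.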 Where a SMILES comes first, the peptide text is derived from it.

Legend:
Experiment in all cases: growth of human tumour cells (NCI), 48 h
IGROV1 ovarian = system: IGROV1 ovarian
HS 578T breast = system: HS 578T breast
SK-MEL-28 melanoma = system: SK-MEL-28 melanoma
COLO 205 colon = system: COLO 205 colon
MCF7 breast = system: MCF7 breast
A498 renal = system: A498 renal
NCI-H226 lung = system: NCI-H226 lung
MALME-3M melanoma = system: MALME-3M melanoma
NCI-H460 lung = system: NCI-H460 lung
TK-10 renal = system: TK-10 renal

SMILES | TGI (IGROV1 ovarian) [µM] | TGI (HS 578T breast) [µM] | TGI (SK-MEL-28 melanoma) [µM] | TGI (COLO 205 colon) [µM] | TGI (MCF7 breast) [µM] | TGI (A498 renal) [µM] | TGI (NCI-H226 lung) [µM] | TGI (MALME-3M melanoma) [µM] | TGI (NCI-H460 lung) [µM] | TGI (TK-10 renal) [µM] | GI50 (HS 578T breast) [µM] | GI50 (SK-MEL-28 melanoma) [µM] | GI50 (COLO 205 colon) [µM] | GI50 (A498 renal) [µM] | GI50 (NCI-H226 lung) [µM] | GI50 (NCI-H460 lung) [µM]
CC(=O)OCC1(CNc2nc(N)ncc2C#N)CC(CCc2ccccc2)C1 (configuration not stated) | > 100 | > 100 | > 100 | > 100 | > 100 | > 100 | > 100 | > 100 | > 100 | – | – | – | – | – | – | –
Cc1cccc(=O)c([O-])c1.Cc1cccc(=O)c([O-])c1.Cc1cccc(=O)c([O-])c1.Cc1cccc(=O)c([O-])c1.[Th+4] | > 100 | – | > 100 | > 100 | – | 81.6 | > 100 | > 100 | > 60.7 | > 100 | – | – | – | – | – | –
Cc1ccc(S(=O)(=O)CC2CCCn3c2c(C#N)c2ccccc23)cc1 (configuration not stated) | > 100 | > 100 | > 100 | > 100 | > 100 | > 100 | > 100 | – | – | > 100 | – | – | – | – | – | –
C=C1C(=O)O[C@H]2[C@H]1CC/C(COC(=O)/C=C/C(=O)OC/C1=C/CC[C@@]3(C)O[C@H]3[C@H]3OC(=O)C(=C)[C@@H]3CC1)=C\CC[C@@]1(C)O[C@@H]21 | – | > 100 | 4.13 | 1.24 | – | > 100 | 3.11 | – | > 100 | – | 3.22 | 1.56 | 0.351 | > 100 | 1.42 | 5.2
CCC(C)C(NC(=O)C1CCCN1)C(=O)NC(C(=O)NCC(=O)NC(CC(N)=O)C(=O)NC(CC(C)C)C(=O)NC(CC(C)C)C(=O)NC(CCCCN)C(N)=O)C(C)C (configuration not stated) (H-PIVGNLLK-NH2; configuration not given here) | > 75 | > 75 | > 75 | > 75 | > 75 | > 75 | > 75 | > 75 | – | > 75 | – | – | – | – | – | –
Oc1ccc(O)c(Sc2nnc(CCCCCCCCc3nnc(Sc4cc(O)ccc4O)o3)o2)c1 | > 100 | – | > 100 | > 100 | 94.1 | > 100 | > 100 | > 100 | > 100 | > 100 | – | – | – | – | – | –
Cc1ccc(C(=O)NN=C(/N=N/c2cccc(C)c2)c2ccc(N(C)C)cc2)cc1 | > 100 | > 100 | > 100 | > 100 | > 100 | – | > 100 | – | > 100 | > 100 | – | – | – | – | – | –
O=C(O)Cn1ncn(NC(=O)Cc2ccccc2)c1=S | > 10 | > 10 | > 10 | > 10 | > 10 | > 10 | – | > 10 | > 10 | > 10 | – | – | – | – | – | –
Cc1cc(=O)[nH]c(NN2C(Cl)C(=O)C2c2ccco2)n1 (configuration not stated) | > 100 | – | – | > 100 | – | – | – | – | > 100 | > 100 | – | – | – | – | – | –
O=C(NCCNCCO)N/N=C/c1ccccc1 | > 100 | – | > 100 | – | – | – | > 100 | > 100 | > 100 | > 100 | – | – | – | – | – | –
COc1ccc(C[C@H]2COC(=O)[C@@H]2Cc2ccccc2)cc1OC | > 100 | > 100 | > 100 | – | > 100 | > 100 | > 100 | > 100 | > 100 | > 100 | – | – | – | – | – | –
CN1C(=O)C(CCO)(C(C)(C)C)c2ccccc21 (configuration not stated) | – | > 100 | > 100 | > 100 | > 100 | – | > 100 | – | > 100 | – | – | – | – | – | – | –
